Values quoted from earlier work, collected in Sander's compilation of Henry's law constants (doi:10.1016/0045-6535(88)90142-7).

assay: Henry solubility constant Hcp at 298.15 K (mol/(m3 Pa)); details: reference: Ryan et al. (1988); cited value

Structure (SMILES) | Henry solubility constant Hcp
Clc1ccc(C(c2ccc(Cl)cc2)C(Cl)(Cl)Cl)cc1 [1,1,1-trichloro-2,2-bis-(4-chlorophenyl)-ethane] | 0.2
CC(Cl)(Cl)Cl [1,1,1-trichloroethane] | 0.00031
ClC(Cl)C(Cl)Cl [1,1,2,2-tetrachloroethane] | 0.025
ClCC(Cl)Cl [1,1,2-trichloroethane] | 0.0013
Clc1ccc(C(c2ccc(Cl)cc2)C(Cl)Cl)cc1 [1,1-dichloro-2,2-bis-(4-chlorophenyl)-ethane] | 0.00081
ClC(Cl)=C(c1ccc(Cl)cc1)c1ccc(Cl)cc1 [1,1-dichloro-2,2-bis-(4-chlorophenyl)-ethene] | 0.45
C=C(Cl)Cl [1,1-dichloroethene] | 0.0022
CC(Cl)CCl (stereo not drawn) [1,2-dichloropropane] | 0.0034
Clc1cccc(Cl)c1 [1,3-dichlorobenzene] | 0.0037
ClC=CCCl [1,3-dichloropropene] | 0.0081
Clc1ccc(Cl)cc1 [1,4-dichlorobenzene] | 0.0041
ClCCOCCCl [1,5-dichloro-3-oxapentane] | 8.6
Cc1ccc(O)c(C)c1 [1-hydroxy-2,4-dimethylbenzene] | 0.54
c1ccc2c(c1)Cc1ccccc1-2 [2,3-benzindene] | 0.084
Oc1ccc(Cl)cc1Cl [2,4-dichlorophenol] | 1.8
O=[N+]([O-])c1ccc(O)c([N+](=O)[O-])c1 [2,4-dinitrophenol] | 15000
Clc1ccc2ccccc2c1 [2-chloronaphthalene] | 0.031
Oc1ccccc1Cl [2-hydroxychlorobenzene] | 2.1
O=[N+]([O-])c1ccccc1O [2-nitrophenol] | 1.3
C=CC#N [2-propenenitrile] | 0.11
Cc1cc(O)ccc1Cl [4-chloro-3-methylphenol] | 4

Structure (SMILES) | Henry solubility constant Hcp
O=[N+]([O-])c1ccc(O)cc1 [4-nitrophenol] | 1.6
c1cc2c3c(cccc3c1)CC2 [acenaphthene] | 0.04
C1=Cc2cccc3cccc1c23 [acenaphthylene] | 0.084
ClC1=C(Cl)[C@]2(Cl)[C@H]3[C@H]([C@@H]4C=C[C@H]3C4)[C@@]1(Cl)C2(Cl)Cl [aldrin] | 0.82
c1ccc2cc3ccccc3cc2c1 [anthracene] | 0.037
c1ccccc1 [benzene] | 0.0018
c1ccc2c(c1)cc1ccc3cccc4ccc2c1c34 [benzo[a]pyrene] | 0.00082
c1ccc2c(c1)-c1cccc3cccc-2c13 [benzo[jk]fluorene] | 1
CCCCC(CC)COC(=O)c1ccccc1C(=O)OCC(CC)CCCC (stereo not drawn) [bis(2-ethylhexyl)-phthalate] | 34
ClCCOCOCCCl [bis-(2-chloroethoxy)-methane] | 37
CC(CCl)OC(C)CCl (stereo not drawn) [bis-(2-chloroisopropyl) ether] | 0.0086
ClCOCCl [bis-(chloromethyl) ether] | 0.0047
CCBr [bromoethane] | 9.2e-05
CCCCOC(=O)c1ccccc1C(=O)OCc1ccccc1 [butyl benzyl phthalate] | 9.6
ClC1=C(Cl)[C@]2(Cl)C3C(Cl)C(Cl)CC3[C@@]1(Cl)C2(Cl)Cl (stereo partly drawn) [chlordane] | 0.1
Clc1ccccc1 [chlorobenzene] | 0.0027
CCCl [chloroethane] | 0.00066
C=CCl [chloroethene] | 0.00065
c1ccc2c(c1)ccc1c3ccccc3ccc21 [chrysene] | 0.0046
CCCCOC(=O)c1ccccc1C(=O)OCCCC [dibutyl phthalate] | 34
FC(F)(Cl)Cl [dichlorodifluoromethane] | 6.4e-06

Structure (SMILES) | Henry solubility constant Hcp
ClCCl [dichloromethane] | 0.0047
ClC1=C(Cl)[C@]2(Cl)[C@@H]3[C@@H]4C[C@@H]([C@H]5O[C@@H]45)[C@@H]3[C@@]1(Cl)C2(Cl)Cl [dieldrin] | 1.3
COC(=O)c1ccccc1C(=O)OC [dimethyl phthalate] | 50
CCCCCCCCOC(=O)c1ccccc1C(=O)OCCCCCCCC [dioctyl phthalate] | 34
ClC1=C(Cl)[C@]2(Cl)[C@@H]3[C@H]4C[C@H]([C@@H]5O[C@H]45)[C@@H]3[C@@]1(Cl)C2(Cl)Cl [endrin] | 24
CCc1ccccc1 [ethylbenzene] | 0.0016
ClC1=C(Cl)C2(Cl)C3C(Cl)C=CC3C1(Cl)C2(Cl)Cl (stereo not drawn) [heptachlor] | 0.0065
ClC1=C(Cl)C2(Cl)C3C4OC4C(Cl)C3C1(Cl)C2(Cl)Cl (stereo not drawn) [heptachlorepoxide] | 13
ClC(Cl)=C(Cl)C(Cl)=C(Cl)Cl [hexachlorobutadiene] | 0.00094
ClC1=C(Cl)C(Cl)(Cl)C(Cl)=C1Cl [hexachlorocyclopentadiene] | 0.00027
ClC(Cl)(Cl)C(Cl)(Cl)Cl [hexachloroethane] | 0.00098
Cc1ccccc1 [methylbenzene] | 0.0014
c1ccc2ccccc2c1 [naphthalene] | 0.02
O=[N+]([O-])c1ccccc1 [nitrobenzene] | 0.75
c1ccc2c(c1)ccc1ccccc12 [phenanthrene] | 0.25
C=CC=O [propenal] | 0.14
ClC(Cl)=C(Cl)Cl [tetrachloroethene] | 0.00063
ClC(Cl)(Cl)Cl [tetrachloromethane] | 0.00045
BrC(Br)Br [tribromomethane] | 0.017
ClC=C(Cl)Cl [trichloroethene] | 0.0011
ClC1C(Cl)C(Cl)C(Cl)C(Cl)C1Cl (stereo not drawn) [β-1,2,3,4,5,6-hexachlorocyclohexane] | 0.67
